What all share (test): inhibition of tumour cell growth, NCI panel, 48 h
The test system of test [1] is MOLT-4 leukemia.
Test [2] concerns 786-0 renal.
In test [3] the test system is SW-620 colon.
The test system of test [4] is UACC-257 melanoma.
Test [5] deals with NCI/ADR-RES ovarian.
The test system of test [6] is U251 CNS.
The subject of test [7] is OVCAR-8 ovarian.
Test [8] has as its system SN12C renal.
For test [9], the system named is M14 melanoma.
The test system of test [10] is ACHN renal.
The test system of test [11] is UO-31 renal.
For test [12], the system named is HCT-116 colon.
The subject of test [13] is OVCAR-3 ovarian.
Test [14] relates to SK-MEL-28 melanoma.
In test [15] the test system is T-47D breast.
The subject of test [16] is EKVX NSCLC.
Test [17] deals with HCT-15 colon.

The results in this text go back to PubChem BioAssay (NCI).

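Protocol summary: plate cells (96-well), add compound at 5 concentrations, incubate 48 h, interpolate endpoints linearly. TGI denotes the concentration required for complete inhibition of growth.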

Consider `CN(C)CCNC(=O)c1cc([N+](=O)[O-])cc2c1Oc1ccccc1O2`, for which the TGI in test [1] was 51.1 µM; in [2] it was above 100 µM; in [3], above 100 µM; in test [4], above 100 µM; in test [5] it was above 100 µM; in [6] it was above 100 µM. The TGI is above 100 µM in [7]; above 100 µM in test [8]; above 100 µM in test [9]; above 100 µM in [10]; 33.2 µM in test [11]; above 100 µM in [12]. The TGI in [13] is above 100 µM; in [14] it was above 100 µM; in test [15] it was 69.6 µM; in test [16], above 100 µM.

Consider `CCOP(=O)(OCC)C(Nc1ccc(Br)cc1)c1cccc([N+](=O)[O-])c1` (stereo not drawn), for which the TGI in [1] was 47.8 µM; in [2], 44.8 µM; in test [3], 35.4 µM; in [5] it was 44.8 µM; in [6] it was 36.1 µM; in [7], above 100 µM. Also, the TGI was determined as 31.7 µM in test [17]; 37.8 µM in test [8]; 37 µM in test [9]; 47.1 µM in [10]; 22.7 µM in [11]; 25.6 µM in test [12]. Also, the TGI in test [13] is 35.6 µM; in [14] it was 60 µM; in test [15], 37.1 µM; in test [16] it was 10.8 µM.

Consider `CCOC(=O)c1nc2ccccc2nc1NCc1cc(OC)c(OC)c(OC)c1`, for which the TGI in [1] is above 100 µM; in test [2], above 100 µM; in test [3], above 100 µM; in test [4], above 100 µM; in test [5], 47.8 µM; in [6] it was above 100 µM. Besides, the TGI in test [7], in test [17], in test [8], in [10], in test [11] and in [12] was above 100 µM throughout. Besides, the TGI in test [13], in test [14], in [15] and in test [16] was above 100 µM in each case.

For `Cc1cc(N(CCC#N)CCC#N)ccc1/C(N=Nc1ccc(C(=O)O)cc1)=N\NC(=O)c1cc(Cl)ccc1O`, the TGI in test [1] was above 100 µM; in test [2], 39.8 µM; in [4] it was above 100 µM; in test [5], above 100 µM; in test [6] it was 63.1 µM; in test [7] it was 93.1 µM. Also, the TGI in test [17] is above 100 µM; in test [8], above 100 µM; in [9], above 100 µM; in test [10], above 100 µM; in test [11], 68 µM; in [12], above 100 µM. Moreover, the TGI in [13], in test [15] and in test [16] was above 100 µM throughout.

Regarding `COc1cc(-c2cc(-c3ccccc3)nc(-c3c(OC)ccc4c(C)cc(=O)oc34)c2)cc(OC)c1OC`, the TGI in test [1], in test [2], in test [3], in [4], in test [5] and in [6] was above 100 µM throughout. Moreover, the TGI in [7], in [17], in test [8], in test [9], in test [10] and in [11] was above 100 µM in each case. Further, the TGI in test [12], in test [13], in test [15] and in [16] was above 100 µM in each case.

For the compound `O=C(CCCN1CCC2(CC1)CC(=O)N(N1CCCCCC1)C2=O)c1ccccc1`, the TGI in test [1], in test [2], in test [4], in [5], in test [6] and in [7] was above 100 µM throughout. Further, the TGI in test [17], in test [8], in test [9], in test [10], in [11] and in test [12] was above 100 µM in each case. The TGI in test [13], in test [14], in test [15] and in [16] was above 100 µM in each case.

As to `COC(=O)C1CN=CN1CCc1ccccc1` (stereo not drawn), the TGI in [1], in [2], in [3], in test [4], in [5] and in test [6] was above 100 µM throughout. Further, the TGI in test [7], in test [17], in test [9], in test [10], in [11] and in test [12] was above 100 µM each time. Also, the TGI in [13], in [14], in test [15] and in test [16] was above 100 µM throughout.

As for `COc1ccc(CC(=O)N2CCC3(C)CC(=O)CC=C23)cc1OC` (stereo not drawn), the TGI in test [1], in test [2], in test [3], in [5], in test [6] and in [7] was above 100 µM throughout. Moreover, the TGI in test [17], in [8], in [9], in test [10], in test [11] and in test [12] was above 100 µM throughout. For the same compound, the TGI in [13], in [14], in test [15] and in test [16] was above 100 µM each time.

In the case of `CCN(CC)/C(Sc1ccccc1)=C(\C(Cl)=C(Cl)Cl)[N+](=O)[O-]`, the TGI is 31.3 µM in [1]; 37.5 µM in [2]; 40.3 µM in test [3]; 44.5 µM in [4]; above 100 µM in test [5]; 35.6 µM in test [7]. The TGI in test [17] is 34.8 µM; in test [8] it was 37.8 µM; in test [9], 37.5 µM; in test [10] it was 31.7 µM; in test [11] it was 28.9 µM; in test [12], 32.8 µM. The TGI in test [13] came to 32.7 µM; in test [14], 32 µM; in [15] it was 42 µM; in [16] it was 34.7 µM.
